What was measured:
claudin-4 = experiment: Quantitative real-time RT-PCR, claudin-4 expression in mouse esophagus tissue; type: in vivo; conditions: 6 days, TCA/DCA with 50 μM Compound A in drinking water, n=3; FIG. 4
Description: (§1) mRNA was prepared from mouse esophagus tissue after 6 days of treatment with vehicle or active agents (Group1:DMSO control, Group2:TCA/DCA positive control, and Group3:TCA/DCTA with 50 μM Compound A in drinking water, n=3 in each group) and reversely transcribed to cDNA by reverse transcriptase (Superscript III, Invitrogen).
(§2) Expression levels of claudin-2 which is expressed in cation-leaky epithelia, and claudin-4 which is a component of tight junction strands (PNAS 107(17), 8011-8016, 2010; Development Biology 312, 509-522, 2007; and Seminars in Cell & Developmental Biology 36 166-176, 2014), were normalized to GAPDH expression by calculating the A Ct=(Ct of GAPDH−Ct of gene). Setting the expression value of GAPDH to 1.0, the relative expression values were then calculated as 2̂ΔCt.

[1] = system: mouse esophageal tissues (epithelial layer); experiment: HE staining of mouse esophageal tissues; type: in vivo; conditions: 6 days of treatment, Compound A with TCA/DCA; FIG. 2
From the text: The mouse esophageal tissues were isolated after 6 days of treatment with control vehicle or drugs (DMSO, TCA/DCA, or Compound A with TCA/DCA). The tissues were separated into two parts, and their lower parts were used for preparation of RT-PCR samples as well as for electrophysiological examination and HE staining. The samples for HE staining were fixed with 10% neutral buffered formalin solution for 12 hrs, after which they were dehydrated and fixed in paraffin. The samples were sliced into 7 μm thick slices in a microtome, and then placed on slide glasses at 43° C. for lhr and then at 55° C. overnight. Following this, tissues were stained with Hematoxylin and Eosin staining solution. The samples were evaluated in a suitable microscope (Olympus EX-43).

[2] = system: esophagus tissues (non-erosive esophageal damage induced by TCA and DCA); experiment: Effect on non-erosive esophageal damage: tissue conductance of esophagus in Ussing chamber after TCA+DCA treatment; type: in vivo, C57Bl/6J mice; conditions: mice given 4 mM TCA and 2 mM DCA in drinking water for 6 days, Compound A in drinking water for the same period; versus TCA+DCA control; FIG. 1
Description: Effect on non-erosive esophageal damage Male or female C57Bl/6J mice were allowed free access to drinking tap water containing 4 mM taurocholic acid (TCA) and 2 mM deoxycholic acid (DCA) for 6 days. On the day after treatment with TCA and DCA, the mice were sacrificed and their esophagus was removed. The esophagus tissues were divided into two parts and distal parts were used for the study. Each tissue was mounted in the Ussing chamber and short-circuit currents were measured. Compound A ((−)-7-{(2R,4aR,5R,7aR)-2-[(3S)-1,1-difluoro-3-methylpentyl]-2-hydroxy-6-oxooctahydrocyclopenta[b]pyran-5-yl}heptanoic acid) was administered to mice in drinking water for the same period of TCA+DCA treatment. Tissue conductance calculated based on the short-circuit current data was used as an index of tissue damage.

claudin-2 = experiment: Quantitative real-time RT-PCR, claudin-2 expression in mouse esophagus tissue; type: in vivo; conditions: 6 days, TCA/DCA with 50 μM Compound A in drinking water, n=3; FIG. 3
Description: as §1, §2

**Q.** What does the source list for CC[C@H](C)CC(F)(F)[C@@]1(O)CC[C@H]2[C@@H](CC(=O)[C@@H]2CCCCCCC(=O)O)O1 [Compound A, (−)-7-{(2R,4aR,5R,7aR)-2-[(3S)-1,1-difluoro-3-methylpentyl]-2-hydroxy-6-oxooctahydrocyclopenta[b]pyran-5-yl}heptanoic acid]?
**A.** Expression level of claudin-4 (normalized to GAPDH) (claudin-4): upregulated; Tissue structure (HE staining), damage of epithelial layer by bile acids [1]: restores or protects against damage by bile acids histologically; Tissue conductance (index of tissue damage) [2]: reduced from that found in control animals; Expression level of claudin-2 (normalized to GAPDH) (claudin-2): downregulated
